Experimental data published in ChEMBL document CHEMBL5108026, “An overview on Estrogen receptors signaling and its ligands in breast cancer” (Eur J Med Chem, 2022).
Each block holds one compound with its values, some of them ahead of it.

What was measured:
Aromatase = target: T1, Aromatase (Rattus norvegicus, UniProt P22443); experiment: Inhibition of aromatase in rat mammary tumor; format: tissue-based, Mammary gland
T1 sequence (P22443 whole entry): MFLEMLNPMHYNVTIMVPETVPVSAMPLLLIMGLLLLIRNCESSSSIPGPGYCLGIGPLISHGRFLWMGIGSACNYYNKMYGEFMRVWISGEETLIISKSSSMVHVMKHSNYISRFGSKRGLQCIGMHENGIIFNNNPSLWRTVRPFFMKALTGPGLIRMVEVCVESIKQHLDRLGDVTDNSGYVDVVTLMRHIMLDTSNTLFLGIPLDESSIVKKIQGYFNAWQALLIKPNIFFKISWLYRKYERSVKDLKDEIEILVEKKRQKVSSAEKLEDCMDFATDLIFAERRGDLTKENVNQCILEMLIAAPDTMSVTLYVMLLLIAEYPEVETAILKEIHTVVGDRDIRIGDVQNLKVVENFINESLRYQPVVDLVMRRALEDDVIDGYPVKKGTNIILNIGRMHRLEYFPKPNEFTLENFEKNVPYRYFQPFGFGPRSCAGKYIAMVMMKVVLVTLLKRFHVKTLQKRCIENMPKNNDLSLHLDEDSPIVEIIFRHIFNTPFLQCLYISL

Estrogen receptor beta [1] = target: T2, Estrogen receptor beta (Homo sapiens, UniProt Q92731); experiment: Displacement of EL red from human full-length ER-beta expressed in baculovirus expression system incubated for 2 hrs by fluorescence polarization assay
Estrogen receptor beta [2] = target: T2, Estrogen receptor beta; experiment: Agonist activity at human ER-beta transfected in African green monkey COS-7 cells measured after 24 hrs by Steady-Glo luciferase assay; format: cell-based
Estrogen receptor = target: T3, Estrogen receptor (Homo sapiens, UniProt P03372); experiment: Modulation of ER-alpha (unknown origin)
T3 sequence (P03372 whole entry): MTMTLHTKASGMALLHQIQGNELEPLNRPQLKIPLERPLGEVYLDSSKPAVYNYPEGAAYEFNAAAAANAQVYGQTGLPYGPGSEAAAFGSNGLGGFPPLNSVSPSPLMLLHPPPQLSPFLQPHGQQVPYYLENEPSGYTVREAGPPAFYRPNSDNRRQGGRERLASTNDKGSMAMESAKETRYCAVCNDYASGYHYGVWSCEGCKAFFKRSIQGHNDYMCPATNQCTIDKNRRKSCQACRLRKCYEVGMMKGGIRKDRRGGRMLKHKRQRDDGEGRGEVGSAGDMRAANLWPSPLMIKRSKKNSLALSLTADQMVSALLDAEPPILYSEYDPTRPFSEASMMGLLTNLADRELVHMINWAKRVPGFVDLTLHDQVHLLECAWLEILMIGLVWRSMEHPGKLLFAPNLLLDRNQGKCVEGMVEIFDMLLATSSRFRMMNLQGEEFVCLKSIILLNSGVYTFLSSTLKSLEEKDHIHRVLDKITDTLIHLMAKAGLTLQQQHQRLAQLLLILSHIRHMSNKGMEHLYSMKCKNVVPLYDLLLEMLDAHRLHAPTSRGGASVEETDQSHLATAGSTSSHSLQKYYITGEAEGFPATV

Estrogen receptor beta [3] = target: T2, Estrogen receptor beta; experiment: Modulation of ER-beta (unknown origin)
MCF7 = experiment: Antiproliferative activity against human MCF7 cells assessed as inhibition of cell growth; format: functional, cell-based

T2 sequence (Q92731 whole entry): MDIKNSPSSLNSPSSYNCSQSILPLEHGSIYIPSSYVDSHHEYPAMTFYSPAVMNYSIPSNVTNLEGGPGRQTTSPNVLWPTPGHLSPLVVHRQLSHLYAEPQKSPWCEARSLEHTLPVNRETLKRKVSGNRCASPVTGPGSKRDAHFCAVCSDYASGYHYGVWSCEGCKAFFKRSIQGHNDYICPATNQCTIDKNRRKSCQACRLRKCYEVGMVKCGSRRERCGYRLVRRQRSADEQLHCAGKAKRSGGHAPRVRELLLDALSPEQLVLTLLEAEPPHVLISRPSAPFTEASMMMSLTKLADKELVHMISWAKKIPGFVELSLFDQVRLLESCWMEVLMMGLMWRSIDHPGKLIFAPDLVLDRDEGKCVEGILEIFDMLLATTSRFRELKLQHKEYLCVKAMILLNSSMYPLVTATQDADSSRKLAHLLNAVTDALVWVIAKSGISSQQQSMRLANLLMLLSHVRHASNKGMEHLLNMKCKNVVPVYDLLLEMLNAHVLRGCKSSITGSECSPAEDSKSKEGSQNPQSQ

SMILES: C[C@]12C=CC(=O)C=C1C[C@@H](Sc1ccc(N)cc1)[C@@H]1[C@@H]2CC[C@]2(C)C(=O)CC[C@@H]12
Ki (Aromatase): 18 nM

IC50 (Estrogen receptor beta [1]): 5570 nM
SMILES: Oc1ccc([C@H]2COc3cc(O)ccc3C2)cc1 [AUS-131]

SMILES: CCOC(=O)C1(C(C)=O)Cc2ccc([C@]3(O)CC[C@H]4[C@@H]5CCc6cc(O)ccc6[C@H]5CC[C@@]43C)cc2C1 (stereo partly specified)
EC50 (Estrogen receptor beta [2]): 1.8 nM

EC50 (Estrogen receptor): 0.014 nM
EC50 (Estrogen receptor beta [3]): 23 nM
SMILES: C[C@]12CC[C@@H]3c4ccc(O)cc4CC[C@H]3[C@@H]1C[C@H]1OC(=O)C[C@]12O

SMILES: C[C@]12CC[C@@H]3c4ccc(O)cc4C[C@@H](CCCCCCCCC[S+]([O-])CCCC(F)(F)C(F)(F)F)[C@H]3[C@@H]1CC[C@@H]2O (stereo partly specified) [FULVESTRANT]
IC50 (MCF7): 0.29 nM
